{"source": "patent US20230172914A1", "about": "“BIOMARKER-BASED THERAPEUTIC COMPOSITION” (WELLMARKER BIO CO., LTD., priority 2019, published 2023)", "key": {"KM12C cell line tumor": {"test_system": "KM12C cell line tumor", "assay": "Effective dose concentration in animal model transplanted with KM12C", "assay_type": "in vivo, BALB/c nude mice", "details": "once a day for 2 weeks", "protocol": "(§1) 5-Week-old female BALB/c nude mice were purchased and acclimatized for 1 week. Then, human-derived colon cancer cell line KM12C (1.5×10^6 cells/mice) was diluted in PBS, and injected subcutaneously (100 μl) into the right dorsal side of the mice. Example 18 was orally administered at respective doses when the tumor reached a size of about 100 mm^3. The drug was administered once a day for 2 weeks, and tumor size and body weight were measured twice a week to perform comparative analysis. After completion of the drug administration, the experimental animals were euthanized, and then the tumors were extracted and weighed to perform comparative analysis."}, "RON mutant (Δ160)": {"molecular_target": "T1, RON mutant (Δ160) (Homo sapiens, UniProt Q04912)", "T1 construct": "expressed in transfected cells; host or cells: Colo320HSR (RON-negative colon cancer cell line)", "T1 sequence (Q04912 25-1294 isoform Q04912-7 limits assumed)": "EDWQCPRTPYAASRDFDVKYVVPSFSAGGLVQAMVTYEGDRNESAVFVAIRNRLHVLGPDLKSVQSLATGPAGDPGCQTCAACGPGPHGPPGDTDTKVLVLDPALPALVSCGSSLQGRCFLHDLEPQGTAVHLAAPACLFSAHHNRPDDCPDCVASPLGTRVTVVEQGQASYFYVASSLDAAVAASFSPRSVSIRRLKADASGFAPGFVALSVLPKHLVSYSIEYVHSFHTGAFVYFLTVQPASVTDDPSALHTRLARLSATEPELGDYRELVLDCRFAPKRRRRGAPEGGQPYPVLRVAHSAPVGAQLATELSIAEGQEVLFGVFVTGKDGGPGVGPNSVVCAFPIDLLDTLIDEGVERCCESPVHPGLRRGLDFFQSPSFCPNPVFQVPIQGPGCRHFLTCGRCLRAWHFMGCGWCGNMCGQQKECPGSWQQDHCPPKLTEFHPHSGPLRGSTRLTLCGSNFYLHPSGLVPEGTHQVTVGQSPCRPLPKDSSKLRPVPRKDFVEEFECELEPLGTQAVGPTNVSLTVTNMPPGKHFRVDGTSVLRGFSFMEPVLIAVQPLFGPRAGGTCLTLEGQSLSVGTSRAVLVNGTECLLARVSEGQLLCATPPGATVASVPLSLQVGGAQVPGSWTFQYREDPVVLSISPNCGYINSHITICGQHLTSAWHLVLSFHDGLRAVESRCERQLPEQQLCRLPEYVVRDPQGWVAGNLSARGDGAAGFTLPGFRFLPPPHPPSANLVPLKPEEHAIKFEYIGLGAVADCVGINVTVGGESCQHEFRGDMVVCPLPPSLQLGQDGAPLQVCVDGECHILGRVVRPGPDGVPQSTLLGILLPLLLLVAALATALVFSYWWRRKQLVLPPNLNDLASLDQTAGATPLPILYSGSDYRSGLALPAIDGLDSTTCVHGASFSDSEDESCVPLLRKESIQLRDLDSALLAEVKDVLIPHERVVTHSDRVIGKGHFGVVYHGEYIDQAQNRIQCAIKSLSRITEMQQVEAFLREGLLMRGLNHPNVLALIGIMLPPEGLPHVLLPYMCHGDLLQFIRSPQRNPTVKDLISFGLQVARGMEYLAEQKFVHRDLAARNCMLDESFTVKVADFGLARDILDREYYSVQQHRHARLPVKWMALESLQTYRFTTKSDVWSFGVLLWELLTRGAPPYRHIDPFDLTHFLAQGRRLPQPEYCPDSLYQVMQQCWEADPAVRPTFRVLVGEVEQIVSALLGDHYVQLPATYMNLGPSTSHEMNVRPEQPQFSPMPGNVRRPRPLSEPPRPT", "T1 sequence (Q04912 25-304 partner limits assumed)": "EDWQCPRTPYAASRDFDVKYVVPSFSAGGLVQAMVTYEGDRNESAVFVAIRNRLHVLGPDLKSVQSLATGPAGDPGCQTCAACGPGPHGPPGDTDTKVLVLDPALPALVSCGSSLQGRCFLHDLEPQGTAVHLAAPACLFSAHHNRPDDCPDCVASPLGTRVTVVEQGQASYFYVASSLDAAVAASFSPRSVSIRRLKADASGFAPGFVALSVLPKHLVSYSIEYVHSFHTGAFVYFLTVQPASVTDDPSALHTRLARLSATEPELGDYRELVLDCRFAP", "assay": "Kinase assay for RON mutant Δ160 in transfected Colo320HSR (immunoprecipitation, Western blotting)", "assay_type": "cell-based", "details": "Colo320HSR transfected with RONΔ160, 2 hours of drug treatment", "protocol": "As a way capable of replacing RON mutant, each of the mutants (Δ160, Δ155) was transfected into Colo320HSR, a RON-negative cell line, and the cell line was subjected to treatment with Example 18 or Comparative Example 1 at respective concentrations. Then, it was checked, through immunoprecipitation and Western blotting, whether expression of active RON decreases. The detailed method is as follows. The RON-negative Colo320SHR colon cancer cell line was transfected with 12 ug of each of RONΔ160 and RON Δ155 using lipofectamine 2000 (Invitrogen, cat #11668-019). For the same transfection efficiency, after 24 hours, the transformed strains were dispensed into a 60-mm dish. 48 hours after transfection, treatment with drugs of Comparative Example 1 and Example 18 was performed, respectively, in a dose-dependent manner. After 2 hours of drug treatment, the cells were collected and washed with PBS. Then, the washed cells were lysed with RIPA Lysis Buffer (T&I, cat #BRI-9001).\nProtein concentrations were quantified using the Bradford (BioRad, cat #5000205) method. […]\nElectrophoresis was performed using SDS-PAGE, and then proteins were transferred to PVDF membrane. […] The developed film was analyzed with densitometry using Image-J, and then IC50 was calculated using Graphpad Prism (GraphPad Software, Inc.)."}, "[1]": {"test_system": "KM12C cell line (active RON/RON mutant (Δ160)) tumor", "assay": "Tumor growth inhibition in animal model transplanted with KM12C (Experimental Example 10)", "assay_type": "in vivo, BALB/c nude mice", "protocol": "as §1, with “cells/mice) (cell line expressing active RON/RON mutant (Δ160))” for “cells/mice)”, “mice. Comparative Examples 1 and” for “mice.”, “18 were” for “18 was”, “administered” for “administered at respective doses”, “a week. […] In addition, after” for “a week to perform comparative analysis. After”, “and weighed.” for “and weighed to perform comparative analysis.”\nIn addition, a portion of the extracted tumor tissue was fixed with 10% formalin, and then a paraffin block was produced therefrom. Then, changes in expression of each protein were checked through immunochemical staining. As a result, it was identified that in the group having received Example 18, expression of the active RON and p-ERK decreases, whereas expression of cleaved caspase 3 is induced (FIG. 11). Tumor tissues were collected from the vehicle group and the 5 mpk (mg/kg) treatment group, and changes in protein expression were compared through Western blotting."}, "[2]": {"test_system": "colon cancer patient tissue (active RON/RON mutant #1: Δ160)", "assay": "Efficacy in animal model transplanted with colon cancer patient tissue, 30 mpk", "assay_type": "in vivo", "details": "30 mpk for 4 weeks", "protocol": "Example 18 and Comparative Example 1 were administered to an animal model transplanted with the same patient tissue (active RON/RON mutant #1: Δ160) cells as in the animal model transplanted with colon cancer patient tissue tumor cells at 30 mpk for 4 weeks. […] The lower pictures of FIG. 21 show tumors extracted from representative individuals of the respective groups."}, "[3]": {"details": "5 mpk (mg/kg) treatment group vs vehicle"}}, "data": [{"smiles": "CCOc1ccn(-c2ccc(F)cc2)c(=O)c1C(=O)Nc1ccc(Oc2ccnc3cc(-c4ccc(CN5CCOCC5)cn4)sc23)c(F)c1.Cl", "note": "[Example 18, 4-ethoxy-N-[3-fluoro-4-({2-[5-(morpholinomethyl)pyridin-2-yl]thieno[3,2-b]pyridine-7-yl}oxy)phenyl]-1-(4-fluorophenyl)-2-oxo-1,2-dihydropyridine-3-carboxamide hydrochloride]", "values": [{"measurement": "tumor growth", "setting": "KM12C cell line tumor; oral at respective doses", "result": "inhibited in a concentration-dependent manner"}, {"measurement": "effective dose concentration", "setting": "KM12C cell line tumor; oral", "result": 5.214, "unit": "mpk"}, {"measurement": "inhibition of RON activity (degree of active RON)", "setting": "RON mutant (Δ160)", "result": "high inhibition efficacy as compared with Comparative Example 1"}, {"measurement": "active RON expression level in tumor tissue (Western blotting)", "setting": "[1]; [3]", "result": "decreased expression level"}, {"measurement": "cleaved caspase 3 expression level in tumor tissue (Western blotting)", "setting": "[1]; [3]", "result": "increased expression level"}, {"measurement": "expression of cleaved caspase 3 in tumor tissue (immunochemical staining)", "setting": "[1]; extracted tumor tissue", "result": "induced"}, {"measurement": "expression of the active RON and p-ERK in tumor tissue (immunochemical staining)", "setting": "[1]; extracted tumor tissue", "result": "decreases"}, {"measurement": "change in mouse body weight", "setting": "[1]; oral, once a day for 2 weeks", "result": "no change in mouse body weight"}, {"measurement": "tumor growth inhibition efficacy (tumor size)", "setting": "[1]; oral, once a day for 2 weeks", "result": "tumor growth inhibition efficacy with drug administration was observed"}, {"measurement": "tumor weight compared with the vehicle group", "setting": "[1]; oral, once a day for 2 weeks", "result": "decreased tumor weight was observed"}, {"measurement": "tumor growth inhibition efficacy", "setting": "[2]", "result": "about 73%"}]}]}
